Laboratory results reported in US11851419B2, “GLP-1R modulating compounds” (Gilead Sciences, Inc., priority 2020, dated 2023).

Legend:
[1] = target: T1, GLP-1R (Homo sapiens, UniProt P43220); assay: GLP-1R Activation - cAMP Assay 2 (cAMP increase in CHO cells stably expressing GLP-1R, pre-spotted agonists); assay type: cell-based; conditions: assay buffer or 100% Human Plasma (not given), 30 minutes at 37° C.
Experimental: GLP-1R Activation—cAMP Assay 2
GLP-1R activation by small molecule agonists is quantified by measuring cAMP increase in CHO cells stably expressing GLP-1R (MultiSpan product #C1267-1a). 50 nL of agonists are pre-spotted in a 10 point dose response onto 384-well plate (Corning product #CL3826) using the Labcyte Echo System. The cells are harvested and plated in assay buffer (HBSS (Corning product #21-023-CV) with 20 mM Hepes (Gibco product #15630-080) and 0.1% BSA (Rockland Immunochemicals product #BSA-1000)) or 100% Human Plasma (Innovative Research product #50-643-396) at 1,000 cells/well, 10 µL/well, onto the pre-spotted plates. The cells are then incubated for 30 minutes at 37° C., 5% CO2. cAMP concentration increase is then detected using Cisbio's cAMP Gs Dynamic Kit (product #62AM4PEC) according to the manufacturer's protocol. The response is plotted against the log of the agonist concentration and fitted to a sigmoidal equation to determine the EC50.

[2] = target: T1, GLP-1R; assay: GLP-1R Activation - cAMP Assay 1 (cAMP increase in CHO cells stably expressing GLP-1R); assay type: cell-based; conditions: 10 point dose response, 30 minutes incubation at 37° C., cAMP Gs Dynamic Kit
Experimental: GLP-1R Activation—cAMP Assay 1
GLP-1R activation by a compound of the present disclosure was quantified by measuring cAMP increase in CHO cells stably expressing GLP-1R (MultiSpan product #C1267-1a). The cells were harvested and plated in growth medium (DMEM/F-12 (Corning product #10-090-CV) supplemented with 10% FBS (HyClone product #SH30071-03), penicillin/streptomycin (Corning product #30-002CI) and 10 µg/ml puromycin (Gibco product #A11138-03)) at 1,000 cells/well in a 384-well plate (Greiner product #781080). The cells were then incubated overnight at 37° C., 5% CO2. The next day, the medium was removed and the cells were washed with DPBS (Corning product #21-031-CM) before adding the assay medium (HBSS, Corning product #21-023-CV) with 20 mM Hepes (Gibco product #15630-080) and 0. 1% BSA (Rockland Immunochemicals product #BSA-1000)). Following the medium change, the cells were incubated for 1 hour at 37° C., 5% CO2. The tested GLP-1 compound was added to the cells in a 10 point dose response followed by a 30 minutes incubation at 37° C., 5% CO2. cAMP concentration increase was then detected using Cisbio's cAMP Gs Dynamic Kit (product #62AM4PEC) according to the manufacturer's protocol. The response was plotted against the log of the agonist concentration and fitted to a sigmoidal equation to determine the EC50.

T1 sequence (P43220 24-463): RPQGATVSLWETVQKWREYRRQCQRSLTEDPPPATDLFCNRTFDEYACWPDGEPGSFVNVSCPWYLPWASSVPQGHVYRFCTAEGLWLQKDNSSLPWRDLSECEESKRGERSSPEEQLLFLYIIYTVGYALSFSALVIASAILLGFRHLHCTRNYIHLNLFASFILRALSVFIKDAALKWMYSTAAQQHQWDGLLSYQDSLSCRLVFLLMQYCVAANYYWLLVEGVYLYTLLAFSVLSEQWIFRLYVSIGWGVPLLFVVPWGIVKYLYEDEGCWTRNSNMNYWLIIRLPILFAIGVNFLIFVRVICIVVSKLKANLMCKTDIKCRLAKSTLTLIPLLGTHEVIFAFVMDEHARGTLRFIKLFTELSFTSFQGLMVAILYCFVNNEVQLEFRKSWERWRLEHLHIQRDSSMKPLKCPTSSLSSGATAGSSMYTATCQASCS

SMILES | EC50 [1] [nM] | EC50 [2] [nM]
COCCn1c(CN2CCC(c3cccc(OCc4ccc(C#N)cc4F)n3)CC2)nc2c(F)c(F)c(C(=O)O)cc21 [Example 10, 2-((4-(6-((4-cyano-2-fluorobenzyl)oxy)pyridin-2-yl)piperidin-1-yl)methyl)-4,5-difluoro-1-(2-methoxyethyl)-1H-benzo[d]imidazole-6-carboxylic Acid] | 11.3 | 18.2
COCCn1c(CC2CCN(c3cccc(OCc4ccc(C#N)cc4F)n3)CC2)nc2c(F)cc(C(=O)O)cc21 [Example 8] | 13.2 | 5.3
COCCn1c(CN2CCC(c3cccc(OCc4ccc(C#N)cc4F)n3)CC2)nc2c(COC)cc(C(=O)O)cc21 [Example 27, 2-((4-(6-((4-cyano-2-fluorobenzyl)oxy)pyridin-2-yl)piperidin-1-yl)methyl)-1-(2-methoxyethyl)-4-(methoxymethyl)-1H-benzo[d]imidazole-6-carboxylic Acid] | – | 14.6
COCCn1c(CN2CCC(c3cccc(OCc4ccc(C#N)cc4F)n3)CC2)nc2c(C)cc(C(=O)O)cc21 [Example 28, 2-((4-(6-((4-cyano-2-fluorobenzyl)oxy)pyridin-2-yl)piperidin-1-yl)methyl)-1-(2-methoxyethyl)-4-methyl-1H-benzo[d]imidazole-6-carboxylic Acid] | – | 21
COCCn1c(CN2CCC(c3cccc(OCc4ccc(C#N)cc4F)n3)CC2)nc2c(C3CC3)cc(C(=O)O)cc21 [Example 26, 2-((4-(6-((4-cyano-2-fluorobenzyl)oxy)pyridin-2-yl)piperidin-1-yl)methyl)-4-cyclopropyl-1-(2-methoxyethyl)-1H-benzo[d]imidazole-6-carboxylic Acid] | 47.8 | 53.9
COCCn1c(CN2CCC(c3cccc(OCc4ccc(C#N)cc4F)n3)CC2)nc2c(Cl)cc(C(=O)O)cc21 [Example 9] | 2.6 | 6.6

These reach a lower EC50 [2]. Values come first.

EC50 [1] [nM] | EC50 [2] [nM] | SMILES
10.3 | 3.8 | COCCn1c(C2CC23CCN(c2cccc(OCc4ccc(C#N)cc4F)n2)CC3)nc2c(F)cc(C(=O)O)cc21 (stereo not shown) [Example 7, 2-[6-[6-[(4-cyano-2-fluoro-phenyl)methoxy]-2-pyridyl]-6-azaspiro[2.5]octan-2-yl]-7-fluoro-3-(2-methoxyethyl)benzimidazole-5-carboxylic Acid]
7.1 | 3.5 | COCCn1c(CN2CCC(c3cccc(OCc4ccc(C#N)cc4F)n3)CC2)nc2c(C#N)cc(C(=O)O)cc21 [Example 25, 4-cyano-2-((4-(6-((4-cyano-2-fluorobenzyl)oxy)pyridin-2-yl)piperidin-1-yl)methyl)-1-(2-methoxyethyl)-1H-benzo[d]imidazole-6-carboxylic Acid]
– | 0.24 | CC(C)(C#N)Cn1c(CN2CCC(c3cccc(OCc4ccc(C#N)cc4F)n3)CC2)nc2c(F)cc(C(=O)O)cc21 [Example 15]
– | 1.04 | COCCn1c(CN2CCC(c3cccc(OCc4ccc(C#N)cc4F)n3)CC2)nc2c(F)cc(C(=O)O)cc21 [Example 14, 2-[[4-[6-[(4-cyano-2-fluoro-phenyl)methoxy]-2-pyridyl]-1-piperidyl]methyl]-7-fluoro-3-(2-methoxyethyl)benzimidazole-5-carboxylic Acid]
